Assay results: patent EP4014973B1, “INHALED LIQUID FOR THE TREATMENT OF RESPIRATORY INFECTIONS IN HUMANS CAUSED BY PATHOGENS RESISTANT TO ANTIBIOTICS” (Conick Biotech LLC, priority 2020, dated 2022)
Where two headings read alike, the source gives them in different places.

Assays:
Pasteurella = experiment: In vitro comparative zone diameter test on Müller-Hinton-Agar; assay type: cell-based; settings: amount used: novel compound 0.05 mL, Cephalosporin 0.1 mL, Ampicillin 0.2 mL
Cryptococcus = experiment: as above; assay type: cell-based; settings: amount used: novel compound 0.05 mL, Cephalosporin 0.1 mL, Ampicillin 0.2 mL
Campylobacter = experiment: as above; assay type: cell-based; settings: amount used: novel compound 0.05 mL, Cephalosporin 0.1 mL, Ampicillin 0.2 mL
Microsporidia = experiment: as above; assay type: cell-based; settings: amount used: novel compound 0.05 mL, Cephalosporin 0.1 mL, Ampicillin 0.2 mL
Histoplasma capsulatum = assay type: cell-based; settings: Müller-Hinton-Agar, amount used: novel compound 0.05 mL, Cephalosporin 0.1 mL, Ampicillin 0.2 mL
Micrococcus = experiment: In vitro comparative zone diameter test on Müller-Hinton-Agar; assay type: cell-based; settings: amount used: novel compound 0.05 mL, Cephalosporin 0.1 mL, Ampicillin 0.2 mL
Candida = experiment: as above; assay type: cell-based; settings: amount used: novel compound 0.05 mL, Cephalosporin 0.1 mL, Ampicillin 0.2 mL
mice [1] = settings: p.o., 2,000 µL / kg
rats [2] = settings: p.o., 2,250 µL / kg
mice [3] = test system: mice
rats [4] = test system: rats
humans = experiment: Clinical pilot study of side effects after inhalation; settings: 80 humans
[5] = inhalatory application, 2,250 µL / kg
[6] = inhalatory application, after 14 days
[7] = inhalatory application, 2,500 µL / kg
[8] = inhalation, 10ml 2% / 30 kg every 8 hours for seven (7) days

CC1(C)S[C@@H]2[C@H](NC(=O)[C@H](N)c3ccccc3)C(=O)N2[C@H]1C(=O)O [Ampicilin, Ampicillin]
R (evaluation of the results by zone diameter) (Pasteurella): MS (5 - 9 mm: moderately sensitive: MS)
zone diameter (Pasteurella): 5 mm
R (evaluation of the results by zone diameter) (Cryptococcus): R (0mm - 4mm: resistant: R)
zone diameter (Cryptococcus): 0 mm
R (evaluation of the results by zone diameter) (Campylobacter): MS (5 - 9 mm: moderately sensitive: MS)
zone diameter (Campylobacter): 7 mm
R (evaluation of the results by zone diameter) (Microsporidia): R (0mm - 4mm: resistant: R)
zone diameter (Microsporidia): 3 mm
R (evaluation of the results by zone diameter) (Histoplasma capsulatum): R (0mm - 4mm: resistant: R)
zone diameter (Histoplasma capsulatum): 2 mm
R (evaluation of the results by zone diameter) (Micrococcus): R (0mm - 4mm: resistant: R)
zone diameter (Micrococcus): 0 mm
R (evaluation of the results by zone diameter) (Candida): R (0mm - 4mm: resistant: R)
zone diameter (Candida): 4 mm

C=CCc1ccc(O)c(OC)c1.CCN(CC)CC(=O)Nc1c(C)cccc1C [Novel Compound, N-[N'-(carboxymethylenyl-2,6-dimethyl-aniline)-N,N-diethylammonium]-[2'-methoxy-4'-(2'-propenyl)]-phenolate.]
R (evaluation of the results by zone diameter) (Pasteurella): ES (21 mm and more: extremely sensitive: ES)
zone diameter (Pasteurella): 36 mm
R (evaluation of the results by zone diameter) (Cryptococcus): ES (21 mm and more: extremely sensitive: ES)
zone diameter (Cryptococcus): 31 mm
R (evaluation of the results by zone diameter) (Campylobacter): ES (21 mm and more: extremely sensitive: ES)
zone diameter (Campylobacter): 32 mm
R (evaluation of the results by zone diameter) (Microsporidia): ES (21 mm and more: extremely sensitive: ES)
zone diameter (Microsporidia): 30 mm
R (evaluation of the results by zone diameter) (Micrococcus): ES (21 mm and more: extremely sensitive: ES)
zone diameter (Micrococcus): 38 mm
R (evaluation of the results by zone diameter) (Candida): ES (21 mm and more: extremely sensitive: ES)
zone diameter (Candida): 33 mm
Breading and cardiac functions (mice [1]): regular
time after which discomfort symptoms disappeared (mice [1]): 1 to 3 min
mice that changed their behavior and demonstrated light discomfort (running, anxiety) (mice [1]; out of hundred (100)): 23
Breading and cardiac functions (rats [2]): regular
time after which discomfort symptoms disappeared (rats [2]): 1 to 3 min
rats that changed their behavior and demonstrated light discomfort (running, anxiety) (rats [2]; out of hundred (100)): 37
Breading and cardiac functions (mice [3]; [5]): regular
time after which discomfort symptoms disappeared (mice [3]; [5]): 3 to 5 min
mice that changed their behavior and demonstrated discomfort (running, anxiety) (mice [3]; inhalatory application, 2,250 µL / kg, out of hundred (100)): 21
reexamination of the animals (mice [3]; [6]): no new irregularities were found
Breading and cardiac functions (rats [4]; [7]): regular
time after which discomfort symptoms disappeared (rats [4]; [7]): 5 to 6 min
rats that changed their behavior and demonstrated discomfort (running, anxiety) (rats [4]; inhalatory application, 2,500 µL / kg, out of hundred (100)): 29
reexamination of the animals (rats [4]; [6]): no new irregularities were found
C Reactive Protein (CRP) measurements (humans; blood samples before the test, on the 4th and 8th day): no inflammation was developed
pulse frequency and blood pressure (humans; during the inhalation, 10ml 2% / 30 kg every 8 hours for seven (7) days): not significantly altered
Electrocardiography measurements (humans; during the intake, 10ml 2% / 30 kg every 8 hours for seven (7) days): regular without any pathological and irregular oscillations
coughing (humans; in the very beginning of the test): Sporadic coughing was recorded in some participants
bronchospasms (humans; [8]): No bronchospasms were recorded
dyspnea (humans; [8]): No dyspnea was recorded
respiratory function (humans; [8]): not disturbed
